Earlier results as cited in patent US20030236285A1, “Stabilized pharmaceutical compositions containing benzimidazole compounds” (priority 2002, published 2003).

Settings: pH higher than 7

For `Cc1c(OCC(F)(F)F)ccnc1C[S+]([O-])c1nc2ccccc2[nH]1` (stereo not shown) [lansoprazole], the rate of degradation is given as “reduced to negligible”.
